Assay results: a melting point compilation (Tetko et al.; mined from patent text by program, amines drawn as free bases though some values may be those of a salt)

SMILES | melting point
Nc1cccc(-c2cc(NC(=O)c3cccs3)nc(-c3ccccc3O)c2)c1 | 161 to 162 °C
Cc1ccccc1COC(=O)NC(CO)Cc1ccc(O)cc1 (stereo not given) | 78 to 81 °C
N#CC(N=Nc1cc(S(=O)(=O)O)ccc1OC(=O)c1ccccc1)=C(OC(=O)c1ccccc1)c1ccccc1 | 193 to 195 °C
O=C(Nc1ccc(N2CCS(=O)(=O)CC2)c(C(F)(F)F)c1)c1cccc2cc(Oc3cc(NC(=O)C4CC4)ncn3)ccc12 | 195 to 205 °C
Cc1nc2sc(S(N)(=O)=O)cc2c(=O)n1-c1ccccc1Cl | 251 °C
OCc1nccn1CCCc1ccc(OCc2coc(/C=C/c3ccccc3)n2)cc1 | 143 to 144 °C
COc1ccc(NC(=O)C(C)(C)c2ccc(S(=O)(=O)/C=C/C#N)cc2)cc1 | 123 to 126 °C
COC(=O)c1ccc(Cl)c(CBr)c1Cl | 51 to 54 °C
CN(C)CCc1c[nH]c2ccc(CCS(=O)(=O)Nc3ccccc3)cc12 | 144 to 146 °C
COc1cc2c(cc1OC)CN(CCc1ccc(NC(=O)c3cccc4c(=O)c5cccc(OC)c5sc34)cc1)CC2 | 218 to 219 °C
CCCc1nc2c(N)nc(C)c(C)c2n1CCCCS(=O)(=O)N(C)C | 127 to 128 °C
COC(=O)c1cc(-c2ccccc2)c(=O)n2c1-c1sccc1CN2C | 180 to 181 °C
Cc1cn(C)c2c1N(C(=O)CCl)c1ccccc1NC2=O | 267 to 269 °C
COCCNC(=O)c1ccc(SC)c([N+](=O)[O-])c1 | 117 to 118 °C
CN1CCC(c2cccc3ccc(-c4cncnc4)cc23)CC1 | 122 to 123 °C
CCOC(=O)c1cc([N+](=O)[O-])c(C(=O)O)cc1C(=O)O | 189 to 191 °C
Cc1n[nH]c(CC#N)c1Oc1cc(Cl)cc(Cl)c1 | 150 to 152 °C
CN(C)C1(Cc2ccccc2)CCC(O)(c2cc3ccccc3s2)CC1 (stereo not given) | 128 to 131 °C
CCC(CC)OC(=O)N1CCC(c2nc3cc(-c4ccc(-n5cnnn5)cc4F)ccc3o2)CC1 | 114 to 117 °C
O=C(Nc1nc2ccccc2c(=O)n1-c1ccccc1)c1ccccc1 | 185 to 188 °C
O=C(OCc1ccccc1)N1CCc2c(sc3nc(CCl)c(Cl)c(-c4ccc(OCc5ccccc5)cc4)c23)C1 | 144 to 145 °C
O=c1[nH]c2[nH]c3ccccc3c2c2ccccc12 | > 310 °C
c1ccc(Nc2nccc(-c3ccc(-c4ccc(N(c5ccccc5)c5ccccc5)cc4)cc3)n2)cc1 | > 300 °C

SMILES | melting point
COC(=O)N=C1SCCN1Cc1ccc(Cl)nc1 | 128 to 130 °C
Cc1cccc(NC(=O)CN2CCN(c3ncccn3)CC2)c1 | 113 to 116 °C
COC(=O)CS(=O)(=O)CCCCN(c1cnc(-c2ccccc2)c(-c2ccccc2)n1)C(C)C | 123 to 125 °C
CC(=O)Nc1cccc(/C=C/C(=O)N2CC(CCl)c3c2cc([N+](=O)[O-])c2ccccc32)c1 (stereo not given) | 214 to 216 °C
CSc1ccc(Oc2ccc([N+](=O)[O-])cc2)cc1 | 59 to 61 °C
O=C(O)c1ccc(C#Cc2cc(C#Cc3ccc(C(=O)O)cc3)cc(C#Cc3ccc(C(=O)O)cc3)c2)cc1 | 218 °C
CCOC(=O)/C=C/c1cccc(C2CCCC2)c1OCCc1ccccc1 | 78 to 80 °C
COc1cccc(-c2nc3c([nH]2)C(C)(C)CS(=O)(=O)CC3(C)C)c1 | 217 to 219 °C
NS(=O)(=O)c1ccccc1CCl | 156 to 158 °C
CN(Cc1ccccc1)C(=O)c1c(-c2ccncc2)c(-c2ccc(F)cc2)nn1C | 149 to 150 °C
CCCc1nn(C)c2c(=O)[nH]c(-c3cc(C(=O)CN4CCCCC4)ccc3OCC)nc12 | 149 to 151 °C
O=C1CCC(c2ccc3c(c2)NCCO3)=NN1 | 198 to 199 °C
CCN1C(=O)CCC(C)(C)c2cc(Nc3ncc(Cl)c(N[C@H]4[C@@H](C(N)=O)[C@@H]5C=C[C@H]4C5)n3)c(OC)cc21 | 156 to 166 °C
Cc1nnc(CN2C(=O)c3ccccc3C2=O)n1-c1ccc(Cl)cc1C(=O)c1ccccc1Cl | 262 to 265 °C
COC(=O)NC(=NS(=O)(=O)NC(C)C)SCc1ccccc1 | 76 to 78 °C
CC(=O)COc1nc(N2CCCCC2)c2nc(OCC(C)=O)nc(N3CCCCC3)c2n1 | 188 to 189 °C
Cc1nnc2n1-c1ccc([N+](=O)[O-])cc1C(c1ccccc1Cl)=NC2 | 231 to 233 °C
OCc1ccc(I)nc1 | 102 °C
Cc1nccc2c3ccc(O)cc3n(Cc3ccccc3)c12 | 234 °C
CC12C=CCC1C1CCC3CCCCC3C1CC2 (stereo not given) | 165 to 166 °C
O=P(c1ccccc1)(c1ccccc1)c1nnc(P(=O)(c2ccccc2)c2ccccc2)c2ccccc12 | 225 to 228 °C
CCOC(=O)CCNc1ncccc1NC(=O)c1ccccc1Cl | 90 to 92 °C

Other lines, results leading:

melting point | SMILES
124 to 125 °C | CCOc1nc(N)nc(C(F)(F)F)n1
131 °C | COC1CCCn2c1nc(C)c(CCN1CCC(c3noc4cc(F)ccc34)CC1)c2=O (stereo not given)
123 to 124 °C | Cc1cn(-c2cc(N)cc(C(F)(F)F)c2)cn1
237 to 243 °C | COc1cccc(C(F)(F)F)c1NS(=O)(=O)c1nc2nc(O)cc(O)n2n1
128 to 130 °C | O=C(NC(=O)c1ccc(F)c(OC(F)F)c1F)NC1CC1
182 to 183 °C | CC(C)N1C(=O)NCc2c(-c3ccccc3)cccc21
136 °C | CCNC1=CC(=O)CC1
142 to 143 °C | c1ccc(C(c2ccccc2)N2C(=NCCCn3ccnc3)c3cccc4cccc2c34)cc1
220 to 222 °C | CC(C)c1ccc(-c2csc(-c3cccc(C(=O)O)c3)c2)cc1
245 to 247 °C | COc1ccc2c(c1)C(=O)N(c1ccc3nc(C)ncc3c1)C2
48 to 50 °C | CCCCN(CCCC)CCCCC(=O)c1ccc2c(c1)Cc1cc(C(=O)CCCCN(CCCC)CCCC)ccc1-2
75 to 77 °C | CCCCCCOc1nccc(C(N)=O)c1Cl
145 to 146 °C | C/C=C/Cn1c(Cc2cc(C)cc(C)c2)c(CC)c(=O)[nH]c1=O
279 to 281 °C | O=C(NCc1ccc(Cl)cc1)c1cnc2c(Cl)cccc2c1O
151 to 152 °C | CC(C)Oc1ccc2c(c1)Oc1cccc(F)c1S2(=O)=O
202 to 203 °C | CC(C)(C)c1ccc(NC(=O)c2cccc3cc(Oc4cc(CO)ncn4)ccc23)cc1
149 °C | COc1ccc2[nH]cc(/C(C#N)=C/c3cccc(C#N)c3)c2c1
159 to 160 °C | CCCc1nc2c(N)nc3ccccc3c2n1CCOCCCS(=O)(=O)c1ccccc1C
153 to 155 °C | O=C1c2cccc3cccc(c23)C(O)N1CCN1CCC(Cc2ccccc2)CC1 (stereo not given)
171 to 173 °C | CCCn1cc(-c2ccncc2)cc(N)c1=O
152 °C | CC(C)Nc1nc(-c2nc[nH]n2)cc(Cl)c1-c1c(F)cccc1Cl
174 to 175 °C | COc1ccc(C(=O)Nc2ccc(N3CCCC3)cc2C(C)=O)cc1
174 to 175 °C | COc1ccc(-n2nc(-c3ccc(C)cc3)c(C(N)=O)c2N)cc1
102 to 104 °C | CCOC(=O)C(=CNc1cccc(C)n1)C(=O)OCC
95.5 to 97.7 °C | CC(C)NC1CCn2c(CCc3ccccc3)nc3cccc1c32 (stereo not given)
185 to 186 °C | O=C(NCCO)c1cncc(-c2cccc3nn(Cc4cccc(C(F)(F)F)c4)cc23)c1
131 to 135 °C | NCCc1cccc(N2C(=O)N(c3ccc(Cl)cc3Cl)Cc3cnc(Nc4ccccc4)nc32)c1
160 to 162 °C | O=C(O)/C=C/C(=O)/C=C/c1ccc(F)cc1

melting point | SMILES
155 °C | CC(O)C#CC1(C)C=CN=C(N)N1 (stereo not given)
137 to 138 °C | Cc1oc(-c2ccccc2)nc1COc1ccc(CCCc2nnn[nH]2)cn1
123 to 125 °C | CCOC(=O)C1=Cc2cc(OC(F)(F)F)ccc2NC1C(F)(F)F (stereo not given)
185 to 189 °C | CCc1nn(C2CN(C(C)C)C2)c(C(N)=O)c1NC(=O)c1cc(S(C)(=O)=O)ccc1OCC(C)C
176 to 177 °C | NC(=O)c1cc2c(Oc3ccc(Cl)cc3)cncc2s1
127 to 128 °C | CC(C)(C)OC(=O)NC(=N)c1ccc(C(=O)NCCC(=O)OCc2ccccc2)cc1
157 to 158 °C | CCOc1cc(OCc2ccc(CN(C)C)o2)cc2c1C(=O)N(COC(=O)c1c(Cl)cccc1Cl)S2(=O)=O
< 50 °C | CC(=O)Nc1cccc2c1C(C#N)C2 (stereo not given)
240 to 242 °C | CC(CC#N)n1nnc2cc3c(=O)n(C4CC4)nnc3cc2c1=O (stereo not given)
150 to 152 °C | c1ccc(-c2c[nH]nc2-c2ccccc2)cc1
107 to 108 °C | CCOC(=O)CCCSc1nnc(S)s1
181 to 182 °C | Cc1nn(C2CCCCC2)c(N)c1C(N)=O
112 to 113 °C | COc1cc([N+](=O)[O-])ccc1OCC(=O)C1CC1
90 to 95 °C | COc1cc(-c2oc3ccccc3c(=O)c2C(=O)N2CCN(c3ccccn3)CC2)cc(OC)c1OC
75 to 78 °C | Cc1cccc2c(C=C(Br)Br)csc12
161 °C | CN(C)c1ccc2ccc(=O)oc2c1
158 °C | CCc1cccc(C)c1CNc1cc(Cn2ccnc2)cn2nc(C)nc12
129 to 131 °C | O=C1CCCN(C(=O)c2ccccc2)C(=O)CCc2cc(Cl)ccc21
61 to 65 °C | COC(=O)C(=NOC(F)F)c1ccccc1COc1cc(C)ccc1C
37 to 39 °C | Cc1ccc(C(Cl)=C(Cl)Cl)cn1
213 to 215 °C | COc1cc(-c2nc(N3CCNC(C)C3)c3c(C)c(C#N)sc3n2)cc(OC)c1OC (stereo not given)
103 to 104 °C | O=Cc1cn(-c2ccc(C(F)(F)F)cn2)nc1C1CCCCC1
98.5 to 102 °C | O=C1CCCc2ccc(OCc3ccc4ccccc4n3)cc21
119 to 120 °C | CCCCOc1cc(/C=C/C(=O)NS(=O)(=O)CCC(C)C)n(Cc2ccc(Cl)cc2Cl)n1
194 to 196 °C | COc1cc(OC)c2c(=O)[nH]c(-c3cc(C)c(CCCN4CCCC4)c(C)c3)nc2c1
185 to 188 °C | Cc1cc2cc(CN3CCCCC3)cnc2cc1NC(=O)c1ccc(-c2ccc(F)cc2)cc1
76 to 78 °C | CC1(Cc2ccccc2)CCCNC1=O (stereo not given)
